Measurements published in patent US10494341B2, “Compound containing indoleacetic acid core structure and use thereof” (Beijing An Jian Xi Bio-Medical Technology Co., Ltd., priority 2015, dated 2019).

Tests used:
[1] = tested on: mouse colon cancer cells (MCA-38); assay: Killing effect of cisplatin on tumor cells with compound (LDH); assay type: cell-based; conditions: MCA-38, 10, 30 and 90 μM, 24 hours
Protocol: The mechanism of compounds enhancing killing effect of chemotherapeutic agents on tumor cells while protecting normal cells: mouse colon cancer cells (MCA-38) and primarily-cultured normal mouse intestinal mucosa cells were cultured in a 96-well plate, respectively. 24 hours later, various concentrations (10, 30 and 90 μM) of compound b was respectively added to the cell culture medium, and incubated for 24 hours. LDH was used to detect the damage of the cells, and the cells were collected and extracted for protein. The expression levels of adenosine triphosphate-binding transporter (ABCG2) and the cell cycle-dependent protein […] (p21) were detected by immunoblotting (performed according to the instructions provided by the manufacturer). […] ABCG2 is a transporter, and can pump anticancer drugs out of the cells. […] The high expression of p21 allows the cells to be in non-dividing quiescent phase, so that cells are not sensitive to chemotherapeutic drugs or injury in other forms. The compounds of the present invention make these proteins expressed differentially in normal tissues and tumor tissues, which is one of the reasons for selectively protecting normal tissues and enhancing the sensitivity of tumors to treatment.

[2] = Degradation of the compound in plasma (10% bovine serum medium, HPLC); assay type: in vitro ADME; conditions: 10 μM, 37° C., within 24 hours
Protocol: (§1) Determination of the stability of the compound: (1) degradation of the compound in plasma: Compound a (10 μM) dissolved in DMSO was cultured with 10% bovine serum medium (5 mL) at 37° C. 200 μL of medium was collected at the time points of 1, 3, 6, 12 and 24 hours, respectively, added with equal volume of acetonitrile for reaction, and subjected to high speed centrifugation (13,000 rpm) for 5 minutes. The level of degradation of the compound was determined by HPLC. (2) Degradation of the compound in cells: the compound a dissolved in DMSO was added at a final concentration of 10 μM to a 6-well culture dish containing SW480 cells and incubated in carbon dioxide incubator. The cells were collected at the time points of 1, 3, 6, 12, and 24 hours, respectively, washed fully, then extracted with 0.5 mL of acetonitrile, and centrifuged at high speed (12,000 rpm) for 5 minutes. The level of degradation of the compound in the organic phase was determined by HPLC.

[3] = tested on: SW480 cells; assay: Degradation of the compound in cells (HPLC); assay type: in vitro ADME; conditions: 10 μM
Protocol: as §1

[4] = Metabolic kinetics in mice after gavage (plasma level of intermediate II); assay type: in vivo
Protocol: Metabolic kinetics of the compound a in mice: the compound a and the intermediate II were administered to mice respectively by gavage at a dose of 25 mg/kg each time and 12 mg/kg each time (equimolar concentration). Equal volume of blood samples were collected at the time points of 1, 3, 5, 9, 18 and 24 hours, and centrifuged immediately. 100 μL of supernatant (plasma) was got, added with 2-fold volume of acetonitrile immediately to extract the blood samples twice, and centrifuged at high speed (12,000 rpm) for 5 minutes. The level of the intermediate II in the organic phase was determined by HPLC, and the content of the compound fragments was detected by LC-MS. Pharmacokinetics was analyzed by Pharmacokinetics Solutions 2.0 software (Summit Research Services, Montrose, Colo., USA).

[5] = tested on: A549 cells; assay: A549 transplanted tumors in nude mice, compound used alone; assay type: in vivo
Protocol: Except cisplatin (intraperitoneal injection, once a week), all compounds were administered by gavage, once a day for 5 weeks continuously.

[6] = gavage, compound a 25 mg/kg, intermediate II 12 mg/kg (equimolar), intermediate II measured in plasma

SMILES	killing effect of cisplatin on colon cancer cells [1]	compound hydrolyzed in bovine serum [2]	compound hydrolyzed in cells ([3]; within 3 hours)	compound hydrolyzed in cells ([3]; within 24 hours)	content of intermediate II in plasma, versus mice given intermediate II ([4]; gavage 25 mg/kg)	metabolites in plasma ([4]; gavage 25 mg/kg)	AUC0 [4, 6]	Cmax [4, 6]	T1/2 [4, 6]	Tmax [4, 6]	inhibition of tumors ([5]; A549, high-dose compound a (25 mg/kg/day) gavage, 5 weeks)	inhibitory effect on the tumor ([5]; A549, cisplatin 5 mg/kg/week i.p., compound a 5 and 25 mg/kg/day, intermediates 12.5 mg/kg/day each)	body weights of the animals ([5]; A549, high dose, during administration)
COc1ccc2c(CC(=O)OCCCCCCCCCCc3c(C)c(O)c(OC)c(OC)c3O)c(C)n(C(=O)c3ccc(Cl)cc3)c2c1 [compound b]	significantly enhances the killing effect of cisplatin	–	–	–	–	–	–	–	–	–	–	–	–
COC1=C(OC)C(=O)C(CCCCCCCCCCOC(=O)Cc2c(C)n(C(=O)c3ccc(Cl)cc3)c3cc(OC)ccc23)=C(C)C1=O [compound a]	–	11%	~80%	completely hydrolyzed	significantly higher	significantly reduced	63200 ng·h/mL	19800 ng/mL	7.6 h	5 h	≥ 60%	dose-dependent inhibitory effect against tumor	not significantly reduced
